{"source": "PubChem BioAssay (NCI)", "assay_in_all_cases": "DTP human tumour cell line panel, 48 h", "key": {"[1]": {"test_system": "A549 NSCLC"}, "[2]": {"test_system": "NCI-H23 lung"}, "[3]": {"test_system": "OVCAR-3 ovarian"}, "[4]": {"test_system": "TK-10 renal"}, "[5]": {"test_system": "SN12C renal"}, "[6]": {"test_system": "CAKI-1 renal"}, "[7]": {"test_system": "SNB-19 CNS"}, "[8]": {"test_system": "SNB-75 CNS"}, "[9]": {"test_system": "MCF7 breast"}, "[10]": {"test_system": "OVCAR-4 ovarian"}}, "note": "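Cultured in 96-well plates, cells were exposed to test compound for 48 hours across five concentrations. Abbreviation: GI50, concentration required for 50% inhibition of growth. At the TGI there is no net growth.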"}
{"smiles": "O=C(O)Cc1[nH]cnc1C(=O)O", "values": [{"measurement": "TGI", "setting": "[1]", "value": "> 100", "unit": "µM"}, {"measurement": "TGI", "setting": "[2]", "value": "> 100", "unit": "µM"}, {"measurement": "TGI", "setting": "[3]", "value": "> 100", "unit": "µM"}, {"measurement": "TGI", "setting": "[4]", "value": "> 100", "unit": "µM"}, {"measurement": "TGI", "setting": "[5]", "value": "> 100", "unit": "µM"}, {"measurement": "TGI", "setting": "[6]", "value": "> 100", "unit": "µM"}, {"measurement": "TGI", "setting": "[7]", "value": "> 100", "unit": "µM"}, {"measurement": "TGI", "setting": "[8]", "value": "> 100", "unit": "µM"}, {"measurement": "TGI", "setting": "[9]", "value": "> 100", "unit": "µM"}, {"measurement": "TGI", "setting": "[10]", "value": "> 100", "unit": "µM"}]}
{"smiles": "COc1ccc(/C=C/[N+](=O)[O-])cc1", "values": [{"measurement": "TGI", "setting": "[2]", "value": 59.9, "unit": "µM"}, {"measurement": "TGI", "setting": "[3]", "value": 8.62, "unit": "µM"}, {"measurement": "TGI", "setting": "[4]", "value": 27, "unit": "µM"}, {"measurement": "TGI", "setting": "[5]", "value": 56, "unit": "µM"}, {"measurement": "TGI", "setting": "[7]", "value": 12.7, "unit": "µM"}, {"measurement": "TGI", "setting": "[8]", "value": "> 100", "unit": "µM"}, {"measurement": "TGI", "setting": "[9]", "value": 5.83, "unit": "µM"}, {"measurement": "TGI", "setting": "[10]", "value": 38.2, "unit": "µM"}]}
{"smiles": "CSc1sc(=S)sc1SC", "values": [{"measurement": "TGI", "setting": "[1]", "value": "> 100", "unit": "µM"}, {"measurement": "TGI", "setting": "[2]", "value": "> 100", "unit": "µM"}, {"measurement": "TGI", "setting": "[3]", "value": "> 100", "unit": "µM"}, {"measurement": "TGI", "setting": "[5]", "value": "> 100", "unit": "µM"}, {"measurement": "TGI", "setting": "[6]", "value": "> 100", "unit": "µM"}, {"measurement": "TGI", "setting": "[7]", "value": "> 100", "unit": "µM"}, {"measurement": "TGI", "setting": "[8]", "value": "> 90", "unit": "µM"}, {"measurement": "TGI", "setting": "[9]", "value": "> 100", "unit": "µM"}, {"measurement": "TGI", "setting": "[10]", "value": "> 100", "unit": "µM"}]}
{"smiles": "COc1ccc(/C(Cl)=C(\\C=O)c2ccc(Cl)c(Cl)c2)cc1OC", "values": [{"measurement": "TGI", "setting": "[3]", "value": 26.3, "unit": "µM"}, {"measurement": "TGI", "setting": "[4]", "value": 51.4, "unit": "µM"}, {"measurement": "TGI", "setting": "[5]", "value": 18.7, "unit": "µM"}, {"measurement": "TGI", "setting": "[6]", "value": 18.8, "unit": "µM"}, {"measurement": "TGI", "setting": "[7]", "value": 65.9, "unit": "µM"}, {"measurement": "TGI", "setting": "[8]", "value": 0.938, "unit": "µM"}]}
{"smiles": "COc1cc2c3c(c4cc(OC)c(OC)cc4c2cc1OC)[C@H](O)[C@@H]1CCCN1C3", "values": [{"measurement": "TGI", "setting": "[1]", "value": 2.56, "unit": "µM"}, {"measurement": "TGI", "setting": "[2]", "value": 1.93, "unit": "µM"}, {"measurement": "TGI", "setting": "[3]", "value": 1.18, "unit": "µM"}, {"measurement": "TGI", "setting": "[4]", "value": 1.55, "unit": "µM"}, {"measurement": "TGI", "setting": "[5]", "value": 1.42, "unit": "µM"}, {"measurement": "TGI", "setting": "[6]", "value": 2.3, "unit": "µM"}, {"measurement": "TGI", "setting": "[7]", "value": "> 100", "unit": "µM"}, {"measurement": "TGI", "setting": "[8]", "value": 0.252, "unit": "µM"}, {"measurement": "TGI", "setting": "[10]", "value": 0.702, "unit": "µM"}]}
{"smiles": "C[C@H](CCC1=NCCN1)[C@H]1CC[C@H]2[C@@H]3CC[C@@H]4C[C@H](O)CC[C@]4(C)[C@H]3CC[C@]12C", "values": [{"measurement": "TGI", "setting": "[1]", "value": 22.4, "unit": "µM"}, {"measurement": "TGI", "setting": "[2]", "value": 35, "unit": "µM"}, {"measurement": "TGI", "setting": "[3]", "value": 38.4, "unit": "µM"}, {"measurement": "TGI", "setting": "[4]", "value": 23.2, "unit": "µM"}, {"measurement": "TGI", "setting": "[5]", "value": 37.3, "unit": "µM"}, {"measurement": "TGI", "setting": "[6]", "value": 20.2, "unit": "µM"}, {"measurement": "TGI", "setting": "[7]", "value": 36.3, "unit": "µM"}, {"measurement": "TGI", "setting": "[8]", "value": 22, "unit": "µM"}, {"measurement": "TGI", "setting": "[9]", "value": "> 57.4", "unit": "µM"}, {"measurement": "TGI", "setting": "[10]", "value": 29.6, "unit": "µM"}]}
{"smiles": "S=C1NN=C2C(=C3CCCC4C5CCCCC5N2C34)N1", "note": "(centres undefined)", "values": [{"measurement": "TGI", "setting": "[1]", "value": "> 100", "unit": "µM"}, {"measurement": "TGI", "setting": "[2]", "value": "> 100", "unit": "µM"}, {"measurement": "TGI", "setting": "[3]", "value": "> 100", "unit": "µM"}, {"measurement": "TGI", "setting": "[4]", "value": "> 100", "unit": "µM"}, {"measurement": "TGI", "setting": "[6]", "value": "> 100", "unit": "µM"}, {"measurement": "TGI", "setting": "[7]", "value": "> 100", "unit": "µM"}, {"measurement": "TGI", "setting": "[9]", "value": "> 100", "unit": "µM"}, {"measurement": "TGI", "setting": "[10]", "value": "> 100", "unit": "µM"}]}
{"smiles": "COc1cc2c3c(n(C4CCNCC4)c(=O)c2cc1OC)-c1cc2c(cc1C3=O)OCO2", "values": [{"measurement": "GI50", "setting": "[2]", "value": 0.538, "unit": "µM"}, {"measurement": "TGI", "setting": "[2]", "value": 2.39, "unit": "µM"}, {"measurement": "GI50", "setting": "[3]", "value": 1.2, "unit": "µM"}, {"measurement": "TGI", "setting": "[3]", "value": 2.6, "unit": "µM"}, {"measurement": "GI50", "setting": "[4]", "value": 1.8, "unit": "µM"}, {"measurement": "TGI", "setting": "[4]", "value": 3.65, "unit": "µM"}, {"measurement": "GI50", "setting": "[6]", "value": 0.295, "unit": "µM"}, {"measurement": "TGI", "setting": "[6]", "value": 1.6, "unit": "µM"}, {"measurement": "GI50", "setting": "[10]", "value": 1.42, "unit": "µM"}, {"measurement": "TGI", "setting": "[10]", "value": 2.95, "unit": "µM"}]}
{"smiles": "CCCCCCCCCCCCCCCCOCCCOP(=O)(O)C1CCCN(O)C1=O", "note": "(centres undefined)", "values": [{"measurement": "GI50", "setting": "[1]", "value": 3.56, "unit": "µM"}, {"measurement": "TGI", "setting": "[1]", "value": 14.4, "unit": "µM"}, {"measurement": "GI50", "setting": "[2]", "value": 4.19, "unit": "µM"}, {"measurement": "TGI", "setting": "[2]", "value": 20.5, "unit": "µM"}, {"measurement": "GI50", "setting": "[3]", "value": 2.77, "unit": "µM"}, {"measurement": "TGI", "setting": "[3]", "value": 16.4, "unit": "µM"}, {"measurement": "GI50", "setting": "[4]", "value": 0.738, "unit": "µM"}, {"measurement": "TGI", "setting": "[4]", "value": 23.4, "unit": "µM"}, {"measurement": "GI50", "setting": "[5]", "value": 1.53, "unit": "µM"}, {"measurement": "TGI", "setting": "[5]", "value": 12.8, "unit": "µM"}, {"measurement": "GI50", "setting": "[6]", "value": 2.09, "unit": "µM"}, {"measurement": "TGI", "setting": "[6]", "value": 6.18, "unit": "µM"}, {"measurement": "GI50", "setting": "[7]", "value": 0.63, "unit": "µM"}, {"measurement": "TGI", "setting": "[7]", "value": 14.5, "unit": "µM"}, {"measurement": "GI50", "setting": "[8]", "value": 2.13, "unit": "µM"}, {"measurement": "TGI", "setting": "[8]", "value": 15, "unit": "µM"}, {"measurement": "GI50", "setting": "[9]", "value": 3.39, "unit": "µM"}, {"measurement": "TGI", "setting": "[9]", "value": 20, "unit": "µM"}, {"measurement": "GI50", "setting": "[10]", "value": 2.43, "unit": "µM"}, {"measurement": "TGI", "setting": "[10]", "value": 19.2, "unit": "µM"}]}
{"smiles": "NC(=O)c1cc(C2OC(CO)C(O)C2O)nn1-c1ccc([N+](=O)[O-])cc1", "note": "(centres undefined)", "values": [{"measurement": "TGI", "setting": "[1]", "value": "> 100", "unit": "µM"}, {"measurement": "TGI", "setting": "[2]", "value": "> 100", "unit": "µM"}, {"measurement": "TGI", "setting": "[3]", "value": "> 100", "unit": "µM"}, {"measurement": "TGI", "setting": "[4]", "value": "> 100", "unit": "µM"}, {"measurement": "TGI", "setting": "[5]", "value": "> 100", "unit": "µM"}, {"measurement": "TGI", "setting": "[6]", "value": "> 100", "unit": "µM"}, {"measurement": "TGI", "setting": "[7]", "value": "> 100", "unit": "µM"}, {"measurement": "TGI", "setting": "[8]", "value": "> 100", "unit": "µM"}, {"measurement": "TGI", "setting": "[10]", "value": "> 100", "unit": "µM"}]}
